In ChEMBL document CHEMBL4765259, “Synthesis and biological evaluation of novel shikonin-benzo[b]furan derivatives as tubulin polymerization inhibitors targeting the colchicine binding site” (Eur J Med Chem, 2020):

Columns and labels:
[1] = system: A549; test: cells; details: Homo sapiens, A549, 48 h
[2] = system: K562; test: Antiproliferative activity against drug resistant human K562 cells incubated for 48 hrs by MTT assay; assay type: functional, cell-based; details: K562, 48 h
[3] = system: HT-29; test: Antiproliferative activity against human HT29 cells incubated for 48 hrs by MTT assay; assay type: functional, cell-based; details: HT-29, 48 h
[4] = system: MDA-MB-231; test: cells; details: Homo sapiens, MDA-MB-231, 48 h
[5] = organism: Homo sapiens; test: Inhibition of [3H]colchicine binding to tubulin (unknown origin) at 2 uM incubated for 2 hrs by scintillation counting method relative to control
[6] = Antiproliferative activity against human LO2 cells incubated for 48 hrs by MTT assay; assay type: cell-based, L02
[7] = system: MCF7; test: cells; details: Homo sapiens, MCF7, 48 h
[8] = system: K562; test: cells; details: Homo sapiens, K562, 48 h
Description: Antiproliferative activity against human K562 cells incubated for 48 hrs by MTT assay

[9] = system: HCT-116; test: cells; details: Homo sapiens, HCT-116, 48 h
Description: Antiproliferative activity against human HCT116 cells incubated for 48 hrs by MTT assay

[10] = Inhibition of tubulin polymerization (unknown origin) measured every 2 mins for 60 mins by spectrophotometric method; set-up: species or system Homo sapiens
[11] = organism: Homo sapiens; test: Inhibition of [3H]colchicine binding to tubulin (unknown origin) at 4 uM incubated for 2 hrs by scintillation counting method relative to control
[12] = system: HepG2; test: Antiproliferative activity against human HepG2 cells incubated for 48 hrs by MTT assay; assay type: functional, cell-based; details: HepG2, 48 h
[13] = Antiproliferative activity against human HEK293T cells incubated for 48 hrs by MTT assay; assay type: cell-based, HEK-293T
[14] = system: MCF7; test: cells; details: Homo sapiens, MCF7, 48 h; remark: listed apart in the source
Description: Antiproliferative activity against drug-resistant human MCF7 cells incubated for 48 hrs by MTT assay

[15] = AUC (0 to infinity) in Sprague-Dawley rat at 1.5 mg/kg, iv by UPLC/MS analysis; assay type: ADME, organism-based; set-up: time infinity, route intravenous, dose 1.5 mg/kg; details: in vivo
[16] = Apparent volume of distribution in Sprague-Dawley rat at 1.5 mg/kg, iv by UPLC/MS analysis; assay type: ADME, organism-based; details: in vivo, read-out: Vz
[17] = Mean residence time (0 to infinity) in Sprague-Dawley rat at 1.5 mg/kg, iv by UPLC/MS analysis; assay type: ADME, organism-based; details: in vivo
[18] = Half life in Sprague-Dawley rat at 1.5 mg/kg, iv by UPLC/MS analysis; assay type: ADME, organism-based; details: in vivo

Structure (SMILES)	IC50 [1] [nM]	IC50 [2] [nM]	IC50 [3] [nM]	IC50 [4] [nM]	inhibition [5] [%]	CC50 at 48 h [6] [nM]	IC50 [7] [nM]	IC50 [8] [nM]	IC50 [9] [nM]	IC50 [10] [nM]	inhibition [11] [%]	IC50 [12] [nM]	CC50 at 48 h [13] [nM]	IC50 [14] [nM]	AUC(0-inf) [15] [ng·h/mL]	Vd [16] [L/kg]	MRT inf [17] [h]	half-life [18] [h]
COc1ccc(/C=C\c2cc(OC)c(OC)c(OC)c2)cc1O [COMBRETASTATIN A4]	230	6150	310	90	81.5	360	250	610	110	1120	93	270	1440	490	–	–	–	–
COc1ccc2cc(C(=O)O[C@H](CC=C(C)C)C3=CC(=O)c4c(O)ccc(O)c4C3=O)oc2c1	–	–	–	–	–	–	–	–	–	–	–	–	–	–	2160	3.35	5.12	3.81
COc1cccc2c1C(=O)c1c(O)c3c(c(O)c1C2=O)C[C@@](O)(C(=O)CO)C[C@@H]3O[C@H]1C[C@H](N)[C@H](O)[C@H](C)O1 [DOXORUBICIN]	–	16300	–	–	–	–	–	210	–	–	–	–	–	–	–	–	–	–
